Data on three molecules can be found in paper PMC8901748, “A novel prostaglandin E receptor 4 (EP4) small molecule antagonist induces articular cartilage regeneration” (Cell Discovery, 2022).

Where two headings read alike, the source gives them in different places.

For data set [1], the system named is primary articular chondrocytes. Put plainly: Cell viability by CCK-8 assay. The data set is classed as cell-based, mouse. Conditions: 72 h, read-out: IC50 (cell viability, toxicity in chondrocytes). How it is done: The cell viability was evaluated by CCK-8 assay (Dojindo Molecular Technologies). Primary chondrocytes were plated in the 96-well plates and treated with the EP4 antagonists or DMSO for 72 h. A total of 10 μl CCK-8 was added to each well, the cells were incubated in the presence of CCK-8 for 2–3 h. The optical density (OD) of each well at 450 nm was recorded on a Microplate Reader (SPECTRA MAX190). The absorbance values were normalized by subtracting blank values of […]. The cell viability (% of control) is calculated as the percentage of (ODtest − ODblank)/(ODcontrol − ODblank). The 50% inhibitory concentration (IC50) was calculated with GraphPad Prism software using the sigmoidal dose-response function.
(§1) ATDC5 cell line was purchased from Riken BioResource Center (Tsukuba, Japan) and grown in a 1:1 mixture of DMEM/F12 medium (Corning, 10-092-CVR) supplemented with 5% fetal bovine serum (Gibco, 10099, USA) and 1% penicillin-streptomycin solution (Life Technologies). Cells were maintained at 37 °C under 5% CO2. Primary chondrocytes were obtained from knee joint cartilage of newborn mice. Knee joints were dissected from the tibia plateau and femoral condyle articular cartilage of mouse pups and digested in 0.1% collagenase type II (Sigma) overnight at 37 °C and chondrocytes were harvested by centrifugation. Primary chondrocytes were cultured at a density of 5 × 10^3 cells per ml at 37 °C with 5% CO2. DMEM/F12 medium with 10% fetal bovine serum (FBS) and 1% penicillin–streptomycin was used to culture the primary chondrocytes. Chondrogenic differentiation were induced with chondrogenic medium, which contains insulin-transferrin-selenium (ITS) (Sigma, I3146), 10 ng/ml TGF-β3 (PEPROTECH, 100-36E, USA), 100 nM Dexamethasone (Sigma, D4902), 50 μg/ml VC (Sigma), 1 mM sodium pyruvate (Sigma) and 40 μg/ml proline (Sigma), and/or treatment with rmIL-1β (R&D, 401-ML/CF), TNFα (PEPROTECH, 300-01A-50) in DMEM/F12 for indicated days. Western blotting was performed according to standard protocols. Antibodies used were: rabbit anti-Mmp3 (1:1000, HuaBio), rabbit anti-Mmp13 (1:500, abcam, ab39012), rabbit anti-p-CREB (1:2000, Cell Signaling Technology, 87G3), rabbit anti-CREB (1:2000, Cell Signaling Technology, 48H2), mouse anti-GAPDH (1:5000; Sigma-Aldrich, G8795), rabbit anti-Col2 (Abcam, Ab34712), rabbit anti-STAT3 (1:2000; Abcam, ab68153), rabbit anti-p-STAT3 (Y705) (1:2000; Abcam, ab76315), rabbit anti -p65 (1:1000; CST, 3034), rabbit anti-p-p65 (1:1000; CST, 3033), and rabbit anti-IκBα (1:1000; Abways, CY5026).
On the technique in general: Formazan colour is commonly taken as a measure of viable cells.

Data set [2] deals with zebrafish embryos. Nature of the data set: Zebrafish embryo toxicity assay. To be noted: for Mortality: zebrafish embryos; for Deformities / Hatching: zebrafish. Set-up: Mortality / Deformities / Hatching: dose or concentration left out as unconfirmed.
Description: A breeding stock of zebrafish at the age of 6–24 months is used for egg production. Fertilized eggs were collected and viable eggs were transferred to the 12-well plate at 26 °C. Fertilized eggs between the 4-cell and 128-cell stages be used for the toxicity test, with ten fertilized eggs per concentration and three replicates of each concentration, a total of 30 eggs for each concentration. […] DMSO was added as vehicle control. Hatching, morphological abnormalities and survival were assessed 24 and 72 h of post-fertilization (dpf) in zebrafish exposed to the chemicals.
In data set [3] the test system is CRE-Luc in ATDC5 cells. Nature of the data set: CRE-Luc luciferase reporter assay. The data set is classed as cell-based, mouse. Conditions: 10 μM H89, 30 μM HL-43, 2 ng/ml IL-1β, 6 h. As to the method:
Six firefly luciferase reporters were used in the Luciferase assay, including CRE-Luc (PathDetect CRE cis-Reporting System; Stratagene, La Jolla CA) driven by a basic promoter (TATA box) plus four repeats of CRE; Sox9 promoter-Luc contains human SOX9 proximal promoter region (−1034 bp to +67 bp)[45]; 4 × 48-p89-Luc, mouse Col2a1 minimal promoter. AP-1-Luc, Nf-κb-Luc, STAT-Luc were obtained from Stratagene. Chondrocytes were cultured in 24-well plates and 300 ng firefly luciferase reporter constructs were transiently transfected using transfection reagent TransExellent-DNA (Cenji Biotech Inc, China) following manufacturer’s instruction, and 15 ng of the Copia-Renilla luciferase reporter was co-transfected as a normalization control. […] The Dual-Luciferase measurements were performed in triplicate using the Luciferase assay kit (Promega) and a LUMIstar Omega luminometer (BMG Labtech, Mornington, Australia).
(In a reporter assay the amount or activity of a reporter protein is the signal.)

Data set [4] relates to Sox9 promoter-Luc in ATDC5 cells. Nature of the data set: Sox9 promoter-Luc luciferase reporter assay. The data set is classed as cell-based, mouse. Conditions: 10 μM H89, 30 μM HL-43, 6 h. How it is done:
Six firefly luciferase reporters were used in the Luciferase assay, including CRE-Luc (PathDetect CRE cis-Reporting System; Stratagene, La Jolla CA) driven by a basic promoter (TATA box) plus four repeats of CRE; Sox9 promoter-Luc contains human SOX9 proximal promoter region (−1034 bp to +67 bp)[45]; 4 × 48-p89-Luc, mouse Col2a1 minimal promoter. AP-1-Luc, Nf-κb-Luc, STAT-Luc were obtained from Stratagene. Chondrocytes were cultured in 24-well plates and 300 ng firefly luciferase reporter constructs were transiently transfected using transfection reagent TransExellent-DNA (Cenji Biotech Inc, China) following manufacturer’s instruction, and 15 ng of the Copia-Renilla luciferase reporter was co-transfected as a normalization control. Cells were treated with the indicated reagents for 48 h after transfection. The Dual-Luciferase measurements were performed in triplicate using the Luciferase assay kit (Promega) and a LUMIstar Omega luminometer (BMG Labtech, Mornington, Australia).

Data set [5] relates to Col2a1, Acan, Mmp3, Mmp9, Mmp13 expression in primary mouse chondrocytes. Put plainly: qRT-PCR of anabolic and catabolic factors in primary chondrocytes. The data set is classed as cell-based. Conditions: primary murine chondrocytes, 1 ng/ml IL-1β, 24 hr. As to the method: as §1
Quantitative RT-PCR was performed to measure the relative mRNA levels. RNA samples were prepared from the chondrocytes using Trizol (Takara). cDNA was generated using the Prime Script RT reverse transcriptase kit (Yeasen, Drr036a). Primers used for amplification were shown in Supplementary Table S1, GAPDH was used as the house keeping gene.
(In general: Real-time PCR tracks product formation cycle by cycle.)

Data set [6] in a line: Preliminary pharmacokinetic studies in CD1 mice. The data set is classed as in vivo. As to the method:
To evaluate the preclinical pharmacokinetic (PK) profiles of compound HL-43 and HL-66, 36 male CD1 mice were randomly divided into four groups for PK studies. […] Blood samples were collected at 0.083, 0.25, 0.5, 1, 2, 4, 8, 12, and 24 h after administration (n = 3). Then the whole blood was centrifuged at 5500 × g for 15 min at 4 °C. After suitable sample preparation, the concentration of HL-43 and HL-66 in plasma sample was determined by Agilent HPLC-MS/MS system (Agilent Technologies, USA). Pharmacokinetic parameters were calculated by WinNonlin software version 7.0 based on non-compartmental analysis (Pharsight Corporation, Mountain View, USA). Mean plasma concentration-time curves were plotted by GraphPad Prism 7.0 (GraphPad Software Inc., CA, USA).

The term IC50 denotes the point on the concentration scale where inhibition reaches its midpoint. For the molecule `Cc1ccc(-c2cc(C(F)(F)F)nn2-c2ccc(S(N)(=O)=O)cc2)cc1` [Celecoxib], in data set [1] (Mus musculus, Chondrocyte), the IC50 was 34.7 µM. Moreover, the Mortality in data set [2] (24hpf, 0.03, n=30) is listed as 0/30; in data set [2] (24hpf, 0.1, n=30) it was 7/30; in data set [2] (24hpf, 0.3, n=30) it was 12/30; in data set [2] (24hpf, 1, n=30), 18/30. For the same molecule, the Deformities in data set [2] (72hpf, 0.03, n=30) is on record as 4/30; in data set [2] (72hpf, 0.1, n=30), 3/30; in data set [2] (72hpf, 0.3, n=30), 7/30; in data set [2] (72hpf, 1, n=30) it was 2/30. The Hatching in data set [2] (72hpf, 0.03, n=30) is reported as 12/30; in data set [2] (72hpf, 0.1, n=30), 8/30; in data set [2] (72hpf, 0.3, n=30), 13/30; in data set [2] (72hpf, 1, n=30) it was 3/30.
In the case of `O=S(=O)(NCCNC/C=C/c1ccc(Br)cc1)c1cccc2cnccc12` [H89, reference compound], the “HL-43-induced CRE luciferase reporter activity” value in data set [3] is recorded as “completely abolished”. For the same molecule, the “HL-43-induced Sox9 promoter luciferase reporter activity” value in data set [4] was “completely abolished”.
As usually defined, the Cmax is the maximum level reached in the sampled fluid or tissue. `Cc1ccc(-c2nnn(CCOc3ccc(F)cc3)c2C(=O)N[C@@H](C)c2ccc(C(=O)O)cc2)o1` [HL-66]: in data set [1], the 50% inhibitory concentration (IC50) worked out at 330 µM. The “Col2a1 expression (screen of EP4 antagonists)” value in data set [5] (EP4 antagonists (2 nM)) is recorded as “highest potency in inducing Col2a1 expression”. In data set [5] (EP4 antagonists (30 μM)), the “Mmp3 expression (screen of EP4 antagonists)” value is “reducing Mmp3 expression”. In addition, in data set [6] (I.V. (5 mg/kg)), the “AUC0-∞” value is 1236.5 ng·h/mL, the C0 is 2557.7 ng/mL, the CL was found to be 13 mL/min/kg and the Vd was 3.7 L/kg. This molecule also came in with a t1/2 in data set [6] (I.V. (5 mg/kg)) of 3.2 h. For the same molecule, in data set [6] (P.O. (1 mg/kg)), the “AUC0-∞” value was found to be 672.5 ng·h/mL, the CL was 123 mL/min/kg, the Cmax amounted to 286.0 ng/mL and the Vd came out at 26.7 L/kg. The t1/2 in data set [6] (P.O. (1 mg/kg)) is 2.5 h. This molecule yielded a Bioavailability in data set [6] (oral) of 10.9%.
